Values joined by “and” are separate entries in the source; they are usually repeats but may differ in a detail not shown here. Equal entries are not always repeated. Inconclusive results and toxic doses are left out.
Tested on: mice, LPC-1 plasma cell tumor ip, median survival T/C
Experiment: NCI In Vivo Anticancer Drug Screen. Data for tumor model Lieberman Plasma Cell No. 1 (LPC-1) (intraperitoneal) in unknown mice
Details: endpoint: median survival time, higher = longer survival
Experimental: The antitumor activity of compounds was measured in mice bearing transplantable tumors. Survival or tumor size were measured and the results are expressed as the measurement made in the treated group (T) divided by the measurement made in the vehicle treated control group (C). The tumor model used in this assay is Lieberman Plasma Cell No. 1 (LPC-1) (intraperitoneal) in unknown mice

[1] = dose: 2.0 mg/kg/injection, schedule: Q01DX028 (sc), vehicle: saline
[2] = dose: 180.0 mg/kg/injection, schedule: Q01DX028 (sc), vehicle: carboxymethylcellulose (CMC)
[3] = dose: 5.0 mg/kg/injection, schedule: Q01DX028 (sc), vehicle: carboxymethylcellulose (CMC)
[4] = dose: 75.0 mg/kg/injection, schedule: Q01DX028 (sc), vehicle: carboxymethylcellulose (CMC)

## CN[C@H]1CCc2cc(OC)c(OC)c(OC)c2-c2ccc(OC)c(=O)cc21
dose: 0.62 mg/kg/injection, schedule: Q01DX015 (sc), vehicle: saline
  T/C: 102 % of control
dose: 1.25 mg/kg/injection, schedule: Q01DX015 (sc), vehicle: saline
  T/C: 102 % of control
dose: 1.25 mg/kg/injection, schedule: Q01DX028 (sc), vehicle: saline
  T/C: 107 % of control
dose: 2.5 mg/kg/injection, schedule: Q01DX028 (sc), vehicle: saline
  T/C: 107 % of control

## CCC(CCC(C)C1CCC2C3CC=C4CC(OC(=O)CCC(=O)O)CCC4(C)C3CCC12C)C(C)C (stereo not drawn)
dose: 100.0 mg/kg/injection, schedule: Q01DX028 (sc), vehicle: water
  T/C: 102 % of control
dose: 400.0 mg/kg/injection, schedule: Q01DX028 (sc), vehicle: water
  T/C: 100 % of control

## COC12C(COC(N)=O)C3=C(C(=O)C(C)=C(N)C3=O)N1CC1C2N1C (stereo not drawn)
dose: 0.7 mg/kg/injection, schedule: Q01DX028 (sc), vehicle: saline
  T/C: 124 % of control
[1]
  T/C: 178 % of control
dose: 3.0 mg/kg/injection, schedule: Q01DX028 (sc), vehicle: saline
  T/C: 156 % of control

## CO[C@H](C(=O)[C@@H](O)[C@@H](C)O)[C@@H]1Cc2cc3cc(OC4CC(OC5CC(O)C(O)C(C)O5)C(O)C(C)O4)c(C)c(O)c3c(O)c2C(=O)[C@H]1OC1CC(OC2CC(OC3CC(C)(O)C(O)C(C)O3)C(O)C(C)O2)C(O)C(C)O1 (stereo partly drawn)
dose: 0.2 mg/kg/injection, schedule: Q01DX028 (sc), vehicle: saline
  T/C: 100 % of control
dose: 0.4 mg/kg/injection, schedule: Q01DX028 (sc), vehicle: saline
  T/C: 97 % of control

## CO[C@@]12[C@H](COC(N)=O)C3=C(C(=O)C(C)=C(N)C3=O)N1C[C@@H]1N[C@@H]12
dose: 0.25 mg/kg/injection, schedule: Q01DX028 (sc), vehicle: saline
  T/C: 191 % of control
dose: 0.5 mg/kg/injection, schedule: Q01DX028 (sc), vehicle: saline
  T/C: 161 % of control
dose: 1.0 mg/kg/injection, schedule: Q01DX028 (sc), vehicle: saline
  T/C: 111 % of control
[1]
  T/C: 100 % of control

## Nc1cc2ncccc2c2ncccc12
dose: 37.5 mg/kg/injection, schedule: Q01DX028 (sc), vehicle: steriod suspending solution
  T/C: 104 % of control
dose: 75.0 mg/kg/injection, schedule: Q01DX028 (sc), vehicle: steriod suspending solution
  T/C: 104 % of control
dose: 150.0 mg/kg/injection, schedule: Q01DX028 (sc), vehicle: steriod suspending solution
  T/C: 112 % of control

## NC(Cc1ccc(N(CCCl)CCCl)cc1)C(=O)O (stereo not drawn)
dose: 2.0 mg/kg/injection, schedule: Q01DX028 (sc), vehicle: methylcellulose (MC)
  T/C: 180 % of control
dose: 4.0 mg/kg/injection, schedule: Q01DX028 (sc), vehicle: methylcellulose (MC)
  T/C: 155 % of control
dose: 8.0 mg/kg/injection, schedule: Q01DX028 (sc), vehicle: methylcellulose (MC)
  T/C: 108 % of control

## CCN(CC)CCNc1ccc(C)c2sc3ccccc3c(=O)c12 (tested in a mixture with another compound)
dose: 48.0 mg/kg/injection, schedule: Q01DX028 (sc), vehicle: saline
  T/C: 221 % of control
dose: 69.0 mg/kg/injection, schedule: Q01DX028 (sc), vehicle: saline
  T/C: 231 % of control
dose: 98.0 mg/kg/injection, schedule: Q01DX028 (sc), vehicle: saline
  T/C: 165 % of control
dose: 140.0 mg/kg/injection, schedule: Q01DX028 (sc), vehicle: saline
  T/C: 173 % of control

## CS(=O)(=O)OCCN(CCOS(C)(=O)=O)c1ccc(C(=O)O)cc1
dose: 20.0 mg/kg/injection, schedule: Q01DX028 (sc), vehicle: carboxymethylcellulose (CMC)
  T/C: 205 % of control
dose: 40.0 mg/kg/injection, schedule: Q01DX028 (sc), vehicle: carboxymethylcellulose (CMC)
  T/C: 350 % of control
dose: 55.0 mg/kg/injection, schedule: Q01DX028 (sc), vehicle: carboxymethylcellulose (CMC)
  T/C: 255 % of control
dose: 80.0 mg/kg/injection, schedule: Q01DX028 (sc), vehicle: carboxymethylcellulose (CMC)
  T/C: 197 % of control
[2]
  T/C: 105 % of control
dose: 270.0 mg/kg/injection, schedule: Q01DX028 (sc), vehicle: carboxymethylcellulose (CMC)
  T/C: 89 % of control

## CC1(C)CC2(CC(C)(C)Oc3cc(O)ccc32)c2ccc(O)cc2O1
dose: 50.0 mg/kg/injection, schedule: Q01DX008 (sc), vehicle: saline
  T/C: 100 % of control
dose: 100.0 mg/kg/injection, schedule: Q01DX008 (sc), vehicle: saline
  T/C: 97 % of control
dose: 200.0 mg/kg/injection, schedule: Q01DX008 (sc), vehicle: saline
  T/C: 97 % of control
dose: 400.0 mg/kg/injection, schedule: Q01DX008 (sc), vehicle: saline
  T/C: 92 % of control

## O=C(O)CCc1c[nH]c2ccc(N(CCCl)CCCl)cc12
dose: 1.8 mg/kg/injection, schedule: Q01DX028 (sc), vehicle: carboxymethylcellulose (CMC)
  T/C: 182 % of control
dose: 2.7 mg/kg/injection, schedule: Q01DX028 (sc), vehicle: carboxymethylcellulose (CMC)
  T/C: 113 % of control
dose: 3.0 mg/kg/injection, schedule: Q01DX028 (sc), vehicle: carboxymethylcellulose (CMC)
  T/C: 164 % of control
[3]
  T/C: 151 % of control
dose: 6.0 mg/kg/injection, schedule: Q01DX028 (sc), vehicle: carboxymethylcellulose (CMC)
  T/C: 163 % of control
dose: 9.0 mg/kg/injection, schedule: Q01DX028 (sc), vehicle: carboxymethylcellulose (CMC)
  T/C: 86 % of control

## O=CN(O)CC(=O)O
dose: 65.0 mg/kg/injection, schedule: Q01DX028 (sc), vehicle: carboxymethylcellulose (CMC)
  T/C: 93 % of control
dose: 108.0 mg/kg/injection, schedule: Q01DX028 (sc), vehicle: carboxymethylcellulose (CMC)
  T/C: 90 % of control
[2]
  T/C: 90 % of control
dose: 300.0 mg/kg/injection, schedule: Q01DX028 (sc), vehicle: carboxymethylcellulose (CMC)
  T/C: 93 % of control
dose: 500.0 mg/kg/injection, schedule: Q01DX028 (sc), vehicle: carboxymethylcellulose (CMC)
  T/C: 95 % of control
dose: 833.0 mg/kg/injection, schedule: Q01DX028 (sc), vehicle: carboxymethylcellulose (CMC)
  T/C: 95 % of control

## Cn1cnc([N+](=O)[O-])c1Sc1ncnc2nc[nH]c12
dose: 25.0 mg/kg/injection, schedule: Q01DX028 (sc), vehicle: carboxymethylcellulose (CMC)
  T/C: 102 % of control
dose: 50.0 mg/kg/injection, schedule: Q01DX028 (sc), vehicle: carboxymethylcellulose (CMC)
  T/C: 111 % of control and 114 % of control
[4]
  T/C: 108 % of control
dose: 100.0 mg/kg/injection, schedule: Q01DX028 (sc), vehicle: carboxymethylcellulose (CMC)
  T/C: 108 % of control

## Cc1c2c(c(C)c3c1OC(C)(C)CC3)OC(C)(C)CC2
dose: 50.0 mg/kg/injection, schedule: Q01DX009 (sc), vehicle: saline
  T/C: 104 % of control
dose: 100.0 mg/kg/injection, schedule: Q01DX009 (sc), vehicle: saline
  T/C: 97 % of control
dose: 200.0 mg/kg/injection, schedule: Q01DX009 (sc), vehicle: saline
  T/C: 95 % of control
dose: 400.0 mg/kg/injection, schedule: Q01DX009 (sc), vehicle: saline
  T/C: 90 % of control

## CCOc1ccccc1C(=O)Nc1ccc(Br)cc1
dose: 180.0 mg/kg/injection, schedule: Q01DX Z (sc), vehicle: carboxymethylcellulose (CMC)
  T/C: 97 % of control
dose: 266.0 mg/kg/injection, schedule: Q01DX Z (sc), vehicle: carboxymethylcellulose (CMC)
  T/C: 105 % of control
dose: 400.0 mg/kg/injection, schedule: Q01DX Z (sc), vehicle: carboxymethylcellulose (CMC)
  T/C: 100 % of control
dose: 600.0 mg/kg/injection, schedule: Q01DX Z (sc), vehicle: carboxymethylcellulose (CMC)
  T/C: 94 % of control

## O=c1[nH]c(=O)n(C2CC(O)C(CO)O2)cc1F (stereo not drawn)
dose: 108.0 mg/kg/injection, schedule: Q01DX028 (sc), vehicle: saline
  T/C: 102 % of control and 109 % of control
dose: 180.0 mg/kg/injection, schedule: Q01DX028 (sc), vehicle: saline
  T/C: 97 % of control
dose: 300.0 mg/kg/injection, schedule: Q01DX028 (sc), vehicle: saline
  T/C: 91 % of control
dose: 500.0 mg/kg/injection, schedule: Q01DX028 (sc), vehicle: saline
  T/C: 86 % of control

## O=NN(CCCl)C(=O)NC1CCCCC1
dose: 33.0 mg/kg/injection, schedule: Q01DX028 (sc), vehicle: carboxymethylcellulose (CMC)
  T/C: 111 % of control
[4]
  T/C: 102 % of control

## CS(=O)(=O)OCCCCOS(C)(=O)=O
dose: 1.25 mg/kg/injection, schedule: Q01DX028 (sc), vehicle: carboxymethylcellulose (CMC)
  T/C: 92 % of control
dose: 2.5 mg/kg/injection, schedule: Q01DX028 (sc), vehicle: carboxymethylcellulose (CMC)
  T/C: 102 % of control
[3]
  T/C: 102 % of control
dose: 10.0 mg/kg/injection, schedule: Q01DX028 (sc), vehicle: carboxymethylcellulose (CMC)
  T/C: 123 % of control

## COc1cc2oc(=O)ccc2cc1CC=C(C)C
dose: 25.0 mg/kg/injection, schedule: Q01DX028 (sc), vehicle: saline
  T/C: 100 % of control

## N=[N+]=CC(=O)OCC(N)C(=O)O (stereo not drawn)
dose: 1.8 mg/kg/injection, schedule: Q01DX028 (sc), vehicle: water
  T/C: 89 % of control
dose: 3.0 mg/kg/injection, schedule: Q01DX028 (sc), vehicle: water
  T/C: 102 % of control
dose: 14.0 mg/kg/injection, schedule: Q01DX028 (sc), vehicle: water
  T/C: 97 % of control

— PubChem BioAssay AID344 (DTP/NCI, 2004)
